Entries after “also recorded” stand apart in the source; their conditions may differ. Like-named read-outs stand apart in the source and are kept apart here.
Columns and labels:
Prothrombin (PT) time = test: Prothrombin time changes in C57BL/6 mice; format: in vivo; settings: 2 hours following the 4th dose, 45 mg/kg/dose, gel SC twice daily
Experimental: (§1) C57BL/6 mice were dosed with a compound of Formula I in a gel composition by subcutaneous injection twice daily for 2 days. Plasma concentrations of a compound of Formula I were measured by LC-MS/MS at select time points following doses 3 and 4. Following drug administration, plasma levels were elevated in a dose dependent manner reaching 15 ug/ml 3 hours after dose 3 at 45 mg/kg/dose. […] Maximal drug plasma levels reached greater than 30 ug/ml 2 hours following dose 4 at 45 mg/kg/dose and dropped to 13 ug/ml by 4 hours post dosing. […] Prothrombin (PT) times were measured at 0 (predose), 2, 4, and 18 hours after the 4th dose administration.

[1] = test system: FVIIa-induced IL-8 response in MDA-MB-231 human breast cancer cells; test: FVIIa-induced IL-8 response in MDA-MB-231 human breast cancer cells; format: cell-based; settings: 1 μM added to the medium; MDA-MB-231 cells incubated with FVIIa
Text: Secretion of the chemokine IL-8 increased to over 3-fold of baseline.

[2] = Animal PK studies, subcutaneous, rat; settings: in vivo, sc, subcutaneous administration, read-out: terminal half-life (t1/2) (converted)
[3] = Animal PK studies, subcutaneous, dog; format: in vivo; settings: plasma, sc
Experimental: In dogs, the time to reach maximum plasma concentrations (Tmax) following subcutaneous injection of a compound of Formula I was 0.5 hours.

B16F10 melanoma cells = test: Lung colonization by B16F10 melanoma cells in mice; format: in vivo; settings: 1.5 h before and 4.5 h and 24 h after tumor cell inoculation, compared to control vehicle
Experimental: In this experiment, the compound of Formula I was administered subcutaneously 1.5 h before tumor cell inoculation, and then 4.5 h and 24 h after tumor cell inoculation. In the absence of the compound of Formula I (i.e., the vehicle alone), a substantial number of colonies formed in the majority of the inoculated mice. […] As a result, in some embodiments, the compound of Formula I inhibit the metastasis of tumor cells.
The compound of Formula I (3×50 mg/kg; 3×100 mg/kg) and a control vehicle were administered subcutaneously 1.5 hours before tumor cell inoculation and then at 4.5 hours and 24 hours after tumor cell inoculation.

[4] = Animal PK studies, subcutaneous, baboon; format: in vivo; settings: plasma, sc
[5] = Animal PK studies, subcutaneous, monkey; settings: in vivo, sc, subcutaneous administration, read-out: terminal half-life (t1/2)
[6] = test system: Lewis lung carcinoma tumor; test: Lewis lung carcinoma tumor growth in C57BL mice; format: in vivo; settings: for tumor volume compared to the control: gel formulation SC, 6, 9, 13, and 15 days after start of dosing
Experimental: In this example, the compound of Formula I was administered subcutaneously starting 4 days after tumor cell implantation in the mice (the two different dosing schedules are described in FIG. 2). […] As a result, the compound of Formula I inhibits the growth of tumor cells.
In a follow-up tumor suppression study, the compound of Formula I reduced Lewis lung carcinoma tumor growth in C57BL mice by approximately 50% when given twice daily at subcutaneous doses 22.5, 45, and 90 mg/kg (FIG. 3).
The compound of Formula I was administered in a gel formulation subcutaneously starting 4 days after tumor cell implantation. Tumor volume in the control experiment continued to increase from about 100 mm^3 at 6 days to above 400 mm^3 after 13 days and above 500 mm^3 after 15 days after start of dosing.

[7] = Toxicology study, 28 or 29 days subcutaneous, cynomolgus monkeys; format: in vivo; settings: for NOAEL: sc
Experimental: Cynomolgus monkeys were administered a gel formulation of a compound of Formula I twice daily by subcutaneous injection for 28 or 29 consecutive days at a total daily dosage of 0 (vehicle), 3, 12, or 36 mg/kg/day (HED=0.96, 3.84, and 11.5 mg/kg/day, respectively).

[8] = Pharmacokinetics after intravenous and subcutaneous administration in cynomolgus monkeys; format: in vivo; settings: for AUC(0-t): read-out: AUC 0-48
Experimental: A study was performed in cynomolgus monkeys with the compound of Formula I to provide information on its pharmacokinetics following intravenous and subcutaneous administration and to determine its subcutaneous bioavailability. The test compound was administered intravenously in a solution (1.76 mg/mL) composition and subcutaneously in a gel composition (107 mg/mL).

[9] = Animal PK studies, subcutaneous bioavailability across species; format: in vivo; settings: rat, dog, monkey, baboon, plasma, sc; administered subcutaneously in a solution; rats, dogs, monkeys, and baboons
[10] = Plasma concentrations in C57BL/6 mice (LC-MS/MS); format: in vivo; settings: for Drug plasma concentrations: all dose levels
Experimental: as §1

[11] = subcutaneous administration, read-out: terminal half-life (t1/2) (converted)
[12] = cynomolgus monkey, plasma, sc, Subcutaneous Gel, 10.7 mg/kg, n = 3
[13] = cynomolgus monkey, plasma, Intravenous Solution, 1.76 mg/kg, n = 4

SMILES: N=C(N)c1ccc2nc(-c3cc(CC(=O)N[C@@H](CC(=O)O)C(=O)O)cc(-c4cc(S(N)(=O)=O)ccc4O)c3O)[nH]c2c1 [compound of Formula I]
- maximal change in PT time (Prothrombin (PT) time): 1.8 times baseline
- FVIIa-induced IL-8 response [1]: completely abrogated
- half-life [2]: 2.67 h
- half-life [3, 11]: 5.68 h
- Tmax ([3]; subcutaneous injection, dogs, read-out: time to reach maximum plasma concentrations (Tmax)): 0.5 h
- Bl6F10 colonies formed in the lung (B16F10 melanoma cells; 3×50 mg/kg SC, 50 mg/kg): substantially fewer colonies were formed
- Bl6F10 colonies formed in the lung (B16F10 melanoma cells; 3×100 mg/kg SC, 100 mg/kg): substantially fewer colonies; also recorded: the number of colonies further dropped
- half-life [4, 11]: 7.21 h
- Tmax ([4]; subcutaneous injection, baboons, read-out: time to reach maximum plasma concentrations (Tmax)): 2.75 h
- half-life [5]: 5.4 to 8.14 h
- reduction in tumor volume ([6]; SC starting 4 days after tumor cell implantation, depending on the dosing schedule, p<0.01): ≥ 50%
- reduction of Lewis lung carcinoma tumor growth ([6]; follow-up study, twice daily subcutaneous doses 22.5, 45, and 90 mg/kg): approximately 50%
- tumor volume compared to the control ([6]; 100 mg/kg bid x4d followed by 60 mg/kg bid, P<0.01): a reduction in the tumor volume
- tumor volume compared to the control ([6]; 150 mg/kg bid x4d followed by 90 mg/kg bid, P≦0.01): a reduction in the tumor volume
- sternum-bone marrow and spleen findings ([7]; cynomolgus monkey, in vivo): shifts indicative of increased erythropoiesis
- kidney medulla finding ([7]; cynomolgus monkey, in vivo, 36 mg/kg/day): minimal to mild widening of the interstitium along the medullary rays
- NOAEL ([7]; cynomolgus monkey, in vivo): 3 mg/kg/day
- NOAEL ([7]; cynomolgus monkey, in vivo, subcutaneous administration for 28 or 29 consecutive days, read-out: NOAEL as HED): 0.96 mg/kg/day
- unscheduled euthanasia ([7]; one female, 36 mg/kg/day group, abnormally high aPTT prior to dosing): euthanized after 3 days of dosing due to severe external hemorrhage
- subcutaneous Cmax as percent of the Cmax observed following intravenous dose ([8]; 10.7 mg/kg subcutaneous vs 1.76 mg/kg intravenous): 74%
- half-life ([8]; cynomolgus monkey, plasma, iv, 1.76 mg/kg, Intravenous Solution, 1.76 mg/kg, n = 4, read-out: t1/2 α (converted)): 0.162 h
- half-life ([8]; cynomolgus monkey, plasma, iv, 1.76 mg/kg, Intravenous Solution, 1.76 mg/kg, n = 4, read-out: t1/2 β (converted)): 2.19 h
- half-life ([8]; cynomolgus monkey, plasma, iv, 1.76 mg/kg, Intravenous Solution, 1.76 mg/kg, n = 4, read-out: t1/2 γ (converted)): 7.07 h
- half-life ([8]; cynomolgus monkey, plasma, sc, 10.7 mg/kg, Subcutaneous Gel, 10.7 mg/kg, n = 3, read-out: Terminal t1/2 (converted)): 7.43 h
- Cmax ([8]; cynomolgus monkey, plasma, sc, Subcutaneous Gel (107 mg/mL), 10.7 mg/kg, n = 3): 11600 ng/mL
- AUC(0-inf) [8, 12]: 172 µg·h/mL
- CL/F [8, 12]: 1.07 mL/min/kg
- Tmax [8, 12]: 3.33 h
- AUC(0-t) [8, 12]: 171 µg·h/mL
- bioavailability ([8]; cynomolgus monkey, plasma, sc, Subcutaneous Gel, single 10.7 mg/kg dose, n = 3, estimated, read-out: Bioavailabilty (subcutaneous)): 138 ± 33%
- Cmax [8, 13]: 15700 ng/mL
- MRT [8, 13]: 5.15 h
- clearance [8, 13]: 1.4 mL/min/kg
- AUC(0-t) [8, 13]: 21.2 µg·h/mL
- Vd ([8]; cynomolgus monkey, plasma, Intravenous Solution, 1.76 mg/kg, n = 4, read-out: Vss): 0.43 L/kg
- bioavailability [9]: 95 to 124%
- Drug plasma concentrations ([10]; 6 hours after dose 3): had dropped significantly
- Drug plasma concentrations ([10]; 18 hours following dose 4): at or near baseline
- Drug plasma concentration ([10]; gel SC twice daily, 2 hours following dose 4 at 22.5 mg/kg/dose): 11000 ng/mL
- Maximal drug plasma level ([10]; gel SC twice daily, 2 hours following dose 4 at 45 mg/kg/dose): greater than 30 ug/ml
- plasma level ([10]; gel SC twice daily, 3 hours after dose 3 at 45 mg/kg/dose): 15000 ng/mL
- Drug plasma concentration ([10]; gel SC twice daily, 4 hours following dose 4 at 22.5 mg/kg/dose): stayed elevated
- drug plasma level ([10]; gel SC twice daily, 4 hours post dose 4 at 45 mg/kg/dose): 13000 ng/mL
